Reference: patent publication US11109593B2, “Isoxazolin-5-one derivative and herbicide containing same as active ingredient” (HOKKO CHEMICAL INDUSTRY CO., LTD., priority 2017, dated 2021)

Assays:
Type in all cases: in vivo
[1] = system: Echinochloa crus-galli; test: Test Example 2: herbicidal effect test by treatment during growing period in paddy rice cultivation (seven days after seeding); settings: 120 g/10a active ingredient, assessed 14 days after treatment, dry weight vs untreated area
Outline: (§1)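 Paddy soil in Wagner pots with compound fertilizer, puddled; 30 seeds per species sown at 0–1 cm, flooded ~3 cm, greenhouse. Seven days after seeding, water-diluted emulsions were dropped into the water at 120 g active ingredient per 10 ares. Duplicate pots; herbicidal rate from dry weight versus untreated, 14 days after treatment.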

[2] = system: broad leaf weeds (Lindernia pyxidaria and Monochoria vaginalis); test: as above; settings: 120 g/10a active ingredient, assessed 14 days after treatment, dry weight vs untreated area
Outline: as §1

[3] = system: Scirpus juncoides; test: as above; settings: 120 g/10a active ingredient, assessed 14 days after treatment, dry weight vs untreated area
Outline: as §1

[4] = system: southern crabgrass; test: Test Example 4: herbicidal effect test by treatment of leave and stem in dry field farming (seven days after seeding); settings: 120 g/10a active ingredient; emulsion sprayed seven days after seeding; evaluated 14 days after treatment
Protocol: (§2) This test was conducted in a double system per one agent solution concentration area, and the herbicidal rates (%) were determined by the following equation (Math. 1) on 14 days after the treatment with the agents. Herbicidal Rate (%)={1-(Average Dry Weight (g) of Plant of Treated Area)/(Average Dry Weight (g) of Plant of Untreated Area)}×100 [Math. 1]
(§3) Herbicidal Effect Test by Treatment of Leave and Stem in Dry Field Farming
(§4) Pots with a size of 36 cm^2 were filled with a dry field farming soil (alluvium). The soil of the top layer of 1 cm and seeds of weeds, namely southern crabgrass, Echinochloa crus-galli, Chenopodium album and Amaranthus viridis, 20 seeds each, were evenly mixed, and the top layer was gently pressed. Emulsions prepared using the compounds in Table 6 below according to Formulation Example 5 were diluted with water seven days after seeding, and the water-diluted agent solutions were sprayed to the soil surfaces at a ratio of 100 liters per 10 ares. The converted amount of the applied active ingredient corresponded to 120 g per 10 ares. The herbicidal effects were evaluated by the same standard as that in Test Example 1 on 14 days after the treatment with the agents. […] The compound numbers in Table 6 are the same as those in Table 1 and Table 2 above.

[5] = system: Amaranthus viridis; test: as above; settings: 120 g/10a active ingredient; emulsion sprayed seven days after seeding; evaluated 14 days after treatment
Protocol: as §2, §3, §4

[6] = system: Chenopodium album; test: as above; settings: 120 g/10a active ingredient; emulsion sprayed seven days after seeding; evaluated 14 days after treatment
Protocol: as §2, §3, §4

[7] = system: Echinochloa crus-galli; test: as above; settings: 120 g/10a active ingredient; emulsion sprayed seven days after seeding; evaluated 14 days after treatment
Protocol: as §2, §3, §4

[8] = system: Echinochloa crus-galli; test: Test Example 1: herbicidal effect test by treatment of rice paddy soil (immediately after seeding); settings: 120 g/10a active ingredient, dry weight vs untreated area, 14 days after treatment
Outline: (§5)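 Application occurs immediately after seeding, with diluted emulsion added to paddy water (about 3 cm deep) over puddled, fertilized soil at 120 g active ingredient per 10 ares. Herbicidal rate is calculated from mean dry weight against untreated controls 14 days later.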

[9] = system: broad leaf weeds (Lindernia pyxidaria and Monochoria vaginalis); test: as above; settings: 120 g/10a active ingredient, dry weight vs untreated area, 14 days after treatment
Outline: as §5

[10] = system: Scirpus juncoides; test: as above; settings: 120 g/10a active ingredient, dry weight vs untreated area, 14 days after treatment
Outline: as §5

[11] = system: southern crabgrass; test: Test Example 3: herbicidal effect test by treatment of dry field farming soil (one day after seeding); settings: 120 g/10a active ingredient, evaluated 14 days after treatment
Outline: (§6)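 Pre-emergence soil treatment: alluvial dry-field soil, 20 seeds per species mixed into top 1 cm, emulsion diluted in water sprayed one day after seeding at 100 L per 10 ares (120 g active ingredient per 10 ares). Duplicate pots; herbicidal rate (%) from dry weight vs untreated at 14 days.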

[12] = system: Amaranthus viridis; test: as above; settings: 120 g/10a active ingredient, evaluated 14 days after treatment
Outline: as §6

[13] = system: Chenopodium album; test: as above; settings: 120 g/10a active ingredient, evaluated 14 days after treatment
Outline: as §6

[14] = system: Echinochloa crus-galli; test: as above; settings: 120 g/10a active ingredient, evaluated 14 days after treatment
Outline: as §6

Row | SMILES | Herbicidal rate (%) Echinochloa crus-galli [1] [%] | Herbicidal rate (%) Lindernia pyxidaria [2] [%] | Herbicidal rate (%) Monochoria vaginalis [2] [%] | Herbicidal rate (%) Scirpus juncoides [3] [%] | herbicidal effect (herbicidal rate), southern crabgrass [4] [%] | herbicidal effect (herbicidal rate), Amaranthus viridis [5] [%] | herbicidal effect (herbicidal rate), Chenopodium album [6] [%] | herbicidal effect (herbicidal rate), Echinochloa crus-galli [7] [%] | Herbicidal rate (%) Echinochloa crus-galli [8] [%] | Herbicidal rate (%) Lindernia pyxidaria [9] [%] | Herbicidal rate (%) Monochoria vaginalis [9] [%] | Herbicidal rate (%) Scirpus juncoides [10] [%] | herbicidal rate, southern crabgrass [11] [%] | herbicidal rate, Amaranthus viridis [12] [%] | herbicidal rate, Chenopodium album [13] [%] | herbicidal rate, Echinochloa crus-galli [14] [%]
1 | Cc1c(Cc2cc(F)ccc2NS(=O)(=O)C(F)(F)F)c(=O)on1CC(C)C [Compound 1-28] | 100 | 80 | 100 | 90 | 50 | 80 | 40 | 90 | 100 | 90 | 100 | 90 | 80 | 100 | 100 | 90
2 | Cc1c(Cc2cc(F)ccc2N(S(=O)(=O)C(F)(F)F)S(=O)(=O)C(F)(F)F)c(=O)on1CC(C)C [Compound 1-29] | 100 | 80 | 90 | 90 | 40 | 60 | 0 | 60 | 100 | 90 | 90 | 90 | 70 | 40 | 40 | 70
3 | Cc1c(Cc2cccc(Cl)c2NS(=O)(=O)C(F)(F)F)c(=O)on1C(C)C [Compound 1-33] | 60 | 60 | 60 | 80 | 40 | 0 | 40 | 90 | 80 | 90 | 90 | 100 | 70 | 0 | 40 | 90
4 | Cc1c(Cc2ccc(Cl)cc2NS(=O)(=O)C(F)(F)F)c(=O)on1C(C)C [Compound 1-37] | 40 | 40 | 40 | 0 | 40 | 40 | 80 | 90 | 60 | 80 | 40 | 90 | 40 | 0 | 40 | 70
5 | Cc1c(Cc2cc(Cl)ccc2NS(=O)(=O)C(F)(F)F)c(=O)on1C(C)C [Compound 1-41] | 90 | 90 | 80 | 60 | 90 | 60 | 90 | 90 | 100 | 100 | 100 | 100 | 90 | 0 | 50 | 90
6 | CCc1c(Cc2ccccc2NS(=O)(=O)C(F)(F)F)c(=O)on1C(C)C [Compound 1-63] | 80 | 80 | 90 | 90 | 60 | 40 | 60 | 90 | 90 | 100 | 100 | 100 | 90 | 40 | 40 | 90
7 | Cc1c(Cc2ccccc2NS(=O)(=O)C(F)(F)F)c(=O)on1C [Compound 1-97] | 90 | 80 | 60 | 90 | 90 | 40 | 40 | 90 | 100 | 100 | 100 | 100 | 90 | 0 | 0 | 90
8 | Cc1c(Cc2ccccc2NS(=O)(=O)C(F)(F)F)c(=O)on1C(C)C [Compound 1-100] | 90 | 90 | 100 | 90 | 90 | 30 | 90 | 90 | 90 | 100 | 100 | 90 | 100 | 100 | 100 | 100
9 | Cc1c(Cc2ccccc2NS(=O)(=O)C(F)(F)F)c(=O)on1C(C)(C)C [Compound 1-101] | 90 | 90 | 90 | 90 | 90 | 40 | 40 | 90 | 90 | 90 | 90 | 90 | 90 | 90 | 90 | 90
